Among the data in patent US12139486B2, “Octahydro fused azadecalin glucocorticoid receptor modulators” (Corcept Therapeutics, Inc., priority 2013, dated 2024) are Ki values, retold here.

By Ki is commonly meant the dissociation constant of the complex between target and ligand, obtained from inhibition or displacement.

Bounds are passed on as bounds.

The target in one assay is T1, human recombinant GR (Homo sapiens, UniProt P04150).
T1 construct: purchased PanVera P2812
T1 sequence (P04150 1-777): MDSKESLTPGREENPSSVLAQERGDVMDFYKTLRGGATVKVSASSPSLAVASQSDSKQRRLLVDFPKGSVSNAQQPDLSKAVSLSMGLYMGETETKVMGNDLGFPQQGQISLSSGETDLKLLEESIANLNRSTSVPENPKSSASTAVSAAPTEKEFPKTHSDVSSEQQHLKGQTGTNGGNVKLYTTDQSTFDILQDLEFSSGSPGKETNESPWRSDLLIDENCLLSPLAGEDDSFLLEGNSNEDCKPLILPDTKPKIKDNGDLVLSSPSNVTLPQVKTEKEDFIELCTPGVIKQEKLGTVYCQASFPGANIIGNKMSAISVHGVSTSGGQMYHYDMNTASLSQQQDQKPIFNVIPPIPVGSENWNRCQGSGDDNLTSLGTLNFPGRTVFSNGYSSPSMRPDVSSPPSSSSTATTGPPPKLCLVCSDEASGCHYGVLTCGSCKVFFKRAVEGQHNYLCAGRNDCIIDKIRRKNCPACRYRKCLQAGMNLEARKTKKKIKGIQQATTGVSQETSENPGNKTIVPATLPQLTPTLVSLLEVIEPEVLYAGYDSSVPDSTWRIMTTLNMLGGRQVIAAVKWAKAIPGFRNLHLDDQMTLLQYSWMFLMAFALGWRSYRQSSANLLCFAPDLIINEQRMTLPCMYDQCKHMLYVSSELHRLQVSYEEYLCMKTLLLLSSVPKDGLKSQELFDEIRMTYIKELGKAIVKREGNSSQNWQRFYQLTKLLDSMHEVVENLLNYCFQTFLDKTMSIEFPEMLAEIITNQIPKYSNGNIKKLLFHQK
In words: Human Glucocorticoid Receptor (GR) Fluorescence Polarisation (FP) Binding Assay. The settings on record: Ki from IC50 by ligand depletion correction; displacement of Fluorome GS Red. The procedure:
The following is a description of a FP assay for measuring compound inhibition of labelled glucocorticoid binding to the human recombinant GR.
The binding affinity of test compounds was determined using a FP binding assay using human recombinant GR (PanVera P2812) and a fluorescent labelled glucocorticoid ligand (Fluorome GS Red) (PanVera P2894). The presence of inhibitors prevents the formation of a GS Red/GR complex resulting in a decrease in the measured polarisation value. The change in polarisation value in the presence of test compounds is used to calculate the binding affinity of the compound for GR.
This assay was performed in 384 well, black, round-bottom, polypropylene micro titre plates in a final volume of 20 μl. The assay contained 5 μl 1 nM GR (final concentration), 5 μl 0.5 nM Fluorome GS Red (final concentration) in the presence of 10p test compounds. Positive control wells (high polarisation) receive, 10 μl 2% (v:v) DMSO vehicle (1% (v/v) final concentration)+5 μl 1 nM GR and 5 μl 0.5 nM Fluorome GS Red. […] Assay blank background wells (used for normalisation) receive 15 μl 1×GS screening buffer+5 μl GR.
For the IC50 determination (concentration of compound that displaces 50% of the bound GS Red), compounds were tested at eight different concentrations in duplicate in two independently performed experiments. Compounds were prepared as solubilised solids at 10 mM in DMSO. On the day of assay, an 8 point half-log serial dilution (55 μl DMSO+25 μl compound solution) was prepared. A 1:50 dilution (1 μl compound solution+49 μl 1×GR screening buffer) was prepared for each compound. The compounds were prepared at 2× final assay concentration.
The plates were mixed and incubated for 4 hour at room temperature. FP was measured using an Envision Excite plate reader with 535 nm excitation and 590 nm emission interference filters.
Milli-polarisation (mP) values were calculated using the below equation: mP=1000*(S−G*P)/(S+G*P) where S and P are assay blank background subtracted fluorescence units, G=G-factor (1.07).
Compound IC50 values were calculated by plotting a [compound] v. % inhibition curve and fitting the data to a 4-parameter logistic fit equation.
10×GR screening buffer (100 mM potassium phosphate pH 7.4, 200 mM Na2MoO4, 1 mM EDTA, 20% (v/v) DMSO). To prepare 1×GR screening buffer, combine 1 ml 10×GR screening buffer (PanVera P2814)+1 ml stabilising peptide (PanVera P2815)+7.95 ml 4° C. MQ water. Add 50p 1M DTT, vortex and place on ice until use.

The target in another assay is T2, glucocorticoid receptor (Homo sapiens, UniProt P04150).
T2 construct: endogenous in cells; host or cells: HepG2
T2 sequence (P04150 1-777): T1 sequence (P04150 1-777)
Briefly: HepG2 Tyrosine Aminotransferase (TAT) Assay. In kind it is cell-based. The procedure:
Glucocorticoid mediated activation of TAT occurs by transactivation of glucocorticoid response elements in the TAT promoter by glucocorticoid receptor-agonist complex.
HepG2 cells were cultured using MEME media supplemented with 10% (v/v) foetal bovine serum; 2 mM L-glutamine and 1% (v/v) NEAA at 37° C., 5%/95% (v/v) CO2/air.
Compounds were serially half log diluted in 100% (v/v) dimethylsulphoxide from a 10 mM stock.
HepG2 cells were then lysed with 30 μl of cell lysis buffer containing a protease inhibitor cocktail for 15 minutes at 4° C. […] After 2 hours incubation at 37° C. the reaction was terminated by the addition of 15 μl of 10 M aqueous potassium hydroxide solution, and the plates incubated for a further 30 minutes at 37° C.
[compound] and fitting the data to a 4 parameter logistic equation.

`CC(C)n1ncc(S(=O)(=O)N2CC[C@H]3Cc4c(cnn4-c4ccc(F)cc4)C[C@]3(C(=O)c3cscn3)C2)n1` [Example 2AJ, ((4aR,8aS)-1-(4-fluorophenyl)-6-((2-isopropyl-2H-1,2,3-triazol-4-yl)sulfonyl)-4,4a,5,6,7,8,8a,9-octahydro-1H-pyrazolo[3,4-g]isoquinolin-4a-yl)(thiazol-4-yl)methanone]: the values for the inhibitory constant (Ki) at human recombinant GR and on glucocorticoid receptor were below 0.5 nM and below 20 nM, respectively.
For `CCCn1cc(S(=O)(=O)N2CC[C@H]3Cc4c(cnn4-c4ccc(F)cc4)C[C@]3(C(=O)c3ccccn3)C2)cn1` [Example 2B, ((4aR,8aS)-1-(4-fluorophenyl)-6-((1-propyl-1H-pyrazol-4-yl)sulfonyl)-4,4a,5,6,7,8,8a,9-octahydro-1H-pyrazolo[3,4-g]isoquinolin-4a-yl)(pyridin-2-yl)methanone], the Ki is below 0.5 nM on human recombinant GR and below 20 nM at glucocorticoid receptor.
With `Cn1ncc(S(=O)(=O)N2CC[C@H]3Cc4c(cnn4-c4ccc(F)cc4)C[C@]3(C(=O)c3cc(C(F)(F)F)ccn3)C2)n1` [Example 2C, ((4aR,8aS)-1-(4-fluorophenyl)-6-((2-methyl-2H-1,2,3-triazol-4-yl)sulfonyl)-4,4a,5,6,7,8,8a,9-octahydro-1H-pyrazolo[3,4-g]isoquinolin-4a-yl)(4-(trifluoromethyl)pyridin-2-yl)methanone], the Ki at human recombinant GR was 0.5 to 1 nM; on glucocorticoid receptor, below 20 nM.
With `CCCn1cc(S(=O)(=O)N2CC[C@H]3Cc4c(cnn4-c4ccc(F)cc4)C[C@]3(C(=O)c3cc(C(F)(F)F)ccn3)C2)cn1` [Example 2D, ((4aR,8aS)-1-(4-fluorophenyl)-6-((1-propyl-1H-pyrazol-4-yl)sulfonyl)-4,4a,5,6,7,8,8a,9-octahydro-1H-pyrazolo[3,4-g]isoquinolin-4a-yl)(4-(trifluoromethyl)pyridin-2-yl)methanone], the figures for the Ki at human recombinant GR and on glucocorticoid receptor were below 0.5 nM and below 20 nM, respectively.
Consider `CCCn1cc(S(=O)(=O)N2CC[C@H]3Cc4c(cnn4-c4ccc(F)cc4)C[C@]3(C(=O)c3nccs3)C2)cn1` [Example 2E, ((4aR,8aS)-1-(4-fluorophenyl)-6-((1-propyl-1H-pyrazol-4-yl)sulfonyl)-4,4a,5,6,7,8,8a,9-octahydro-1H-pyrazolo[3,4-g]isoquinolin-4a-yl)(thiazol-2-yl)methanone], for which the results for the inhibition constant Ki at human recombinant GR and at glucocorticoid receptor were below 0.5 nM and below 20 nM, respectively.
The matching figures for `O=C(c1ccccn1)[C@]12Cc3cnn(-c4ccc(F)cc4)c3C[C@@H]1CCN(S(=O)(=O)c1cccc(F)c1)C2` [Example 2F, ((4aR,8aS)-1-(4-fluorophenyl)-6-((3-fluorophenyl)sulfonyl)-4,4a,5,6,7,8,8a,9-octahydro-1H-pyrazolo[3,4-g]isoquinolin-4a-yl)(pyridin-2-yl)methanone]: above 1 nM and 20 to 100 nM.
Regarding `O=C(c1ccccn1)[C@]12Cc3cnn(-c4ccc(F)cc4)c3C[C@@H]1CCN(S(=O)(=O)c1cccc(C(F)(F)F)c1)C2` [Example 2G, ((4aR,8aS)-1-(4-fluorophenyl)-6-((3-(trifluoromethyl)phenyl)sulfonyl)-4,4a,5,6,7,8,8a,9-octahydro-1H-pyrazolo[3,4-g]isoquinolin-4a-yl)(pyridin-2-yl)methanone], the Ki was above 1 nM on human recombinant GR and 20 to 100 nM at glucocorticoid receptor.
Consider `Cn1cc(S(=O)(=O)N2CC[C@H]3Cc4c(cnn4-c4ccc(F)cc4)C[C@]3(C(=O)c3cc(C(F)(F)F)ccn3)C2)cn1` [Example 2H, ((4aR,8aS)-1-(4-fluorophenyl)-6-((1-methyl-1H-pyrazol-4-yl)sulfonyl)-4,4a,5,6,7,8,8a,9-octahydro-1H-pyrazolo[3,4-g]isoquinolin-4a-yl)(4-(trifluoromethyl)pyridin-2-yl)methanone], for which the Ki at human recombinant GR was above 1 nM; on glucocorticoid receptor it was 20 to 100 nM.
Consider `Cn1ccc(S(=O)(=O)N2CC[C@H]3Cc4c(cnn4-c4ccc(F)cc4)C[C@]3(C(=O)c3cc(C(F)(F)F)ccn3)C2)n1` [Example 2I, ((4aR,8aS)-1-(4-fluorophenyl)-6-((1-methyl-1H-pyrazol-3-yl)sulfonyl)-4,4a,5,6,7,8,8a,9-octahydro-1H-pyrazolo[3,4-g]isoquinolin-4a-yl)(4-(trifluoromethyl)pyridin-2-yl)methanone], for which the inhibitory constant (Ki) at human recombinant GR is 0.5 to 1 nM; at glucocorticoid receptor it was 20 to 100 nM.
Regarding `Cn1nccc1S(=O)(=O)N1CC[C@H]2Cc3c(cnn3-c3ccc(F)cc3)C[C@]2(C(=O)c2cc(C(F)(F)F)ccn2)C1` [Example 2J, ((4aR,8aS)-1-(4-fluorophenyl)-6-((1-methyl-1H-pyrazol-5-yl)sulfonyl)-4,4a,5,6,7,8,8a,9-octahydro-1H-pyrazolo[3,4-g]isoquinolin-4a-yl)(4-(trifluoromethyl)pyridin-2-yl)methanone], the Ki was above 1 nM at human recombinant GR and 20 to 100 nM on glucocorticoid receptor.
For `CCn1cc(S(=O)(=O)N2CC[C@H]3Cc4c(cnn4-c4ccc(F)cc4)C[C@]3(C(=O)c3cc(C(F)(F)F)ccn3)C2)cn1` [Example 2K, ((4aR,8aS)-6-((1-ethyl-1H-pyrazol-4-yl)sulfonyl)-1-(4-fluorophenyl)-4,4a,5,6,7,8,8a,9-octahydro-1H-pyrazolo[3,4-g]isoquinolin-4a-yl)(4-(trifluoromethyl)pyridin-2-yl)methanone], the Ki on human recombinant GR fell in the range of 0.5 to 1 nM; on glucocorticoid receptor, 20 to 100 nM.
On to `CCn1nccc1S(=O)(=O)N1CC[C@H]2Cc3c(cnn3-c3ccc(F)cc3)C[C@]2(C(=O)c2cc(C(F)(F)F)ccn2)C1` [Example 2L, ((4aR,8aS)-6-((1-ethyl-1H-pyrazol-5-yl)sulfonyl)-1-(4-fluorophenyl)-4,4a,5,6,7,8,8a,9-octahydro-1H-pyrazolo[3,4-g]isoquinolin-4a-yl)(4-(trifluoromethyl)pyridin-2-yl)methanone], for which the inhibitory constant (Ki) is above 1 nM on human recombinant GR and 20 to 100 nM at glucocorticoid receptor.
Consider `O=C(c1nccs1)[C@]12Cc3cnn(-c4ccc(F)cc4)c3C[C@@H]1CCN(S(=O)(=O)c1ccc(C(F)(F)F)cc1)C2` [Example 2M, ((4aR,8aS)-1-(4-fluorophenyl)-6-((4-(trifluoromethyl)phenyl)sulfonyl)-4,4a,5,6,7,8,8a,9-octahydro-1H-pyrazolo[3,4-g]isoquinolin-4a-yl)(thiazol-2-yl)methanone], for which the Ki on human recombinant GR is above 1 nM; on glucocorticoid receptor, 20 to 100 nM.
With `CC(C)n1ncc(S(=O)(=O)N2CC[C@H]3Cc4c(cnn4-c4ccc(F)cc4)C[C@]3(C(=O)c3ccccn3)C2)n1` [Example 2N, ((4aR,8aS)-1-(4-fluorophenyl)-6-((2-isopropyl-2H-1,2,3-triazol-4-yl)sulfonyl)-4,4a,5,6,7,8,8a,9-octahydro-1H-pyrazolo[3,4-g]isoquinolin-4a-yl)(pyridin-2-yl)methanone], the Ki at human recombinant GR was below 0.5 nM; on glucocorticoid receptor, below 20 nM.
